Active and inactive are the calls of the source.
Legend:
[1] = target: T1, Sentrin-specific protease 6 (Homo sapiens, UniProt Q9GZR1); type: functional;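 also: Luminescence-based dose-response confirmatory assay of SENP6 inhibition, following up an ultra-high-throughput screen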
T1 sequence (Q9GZR1 whole entry): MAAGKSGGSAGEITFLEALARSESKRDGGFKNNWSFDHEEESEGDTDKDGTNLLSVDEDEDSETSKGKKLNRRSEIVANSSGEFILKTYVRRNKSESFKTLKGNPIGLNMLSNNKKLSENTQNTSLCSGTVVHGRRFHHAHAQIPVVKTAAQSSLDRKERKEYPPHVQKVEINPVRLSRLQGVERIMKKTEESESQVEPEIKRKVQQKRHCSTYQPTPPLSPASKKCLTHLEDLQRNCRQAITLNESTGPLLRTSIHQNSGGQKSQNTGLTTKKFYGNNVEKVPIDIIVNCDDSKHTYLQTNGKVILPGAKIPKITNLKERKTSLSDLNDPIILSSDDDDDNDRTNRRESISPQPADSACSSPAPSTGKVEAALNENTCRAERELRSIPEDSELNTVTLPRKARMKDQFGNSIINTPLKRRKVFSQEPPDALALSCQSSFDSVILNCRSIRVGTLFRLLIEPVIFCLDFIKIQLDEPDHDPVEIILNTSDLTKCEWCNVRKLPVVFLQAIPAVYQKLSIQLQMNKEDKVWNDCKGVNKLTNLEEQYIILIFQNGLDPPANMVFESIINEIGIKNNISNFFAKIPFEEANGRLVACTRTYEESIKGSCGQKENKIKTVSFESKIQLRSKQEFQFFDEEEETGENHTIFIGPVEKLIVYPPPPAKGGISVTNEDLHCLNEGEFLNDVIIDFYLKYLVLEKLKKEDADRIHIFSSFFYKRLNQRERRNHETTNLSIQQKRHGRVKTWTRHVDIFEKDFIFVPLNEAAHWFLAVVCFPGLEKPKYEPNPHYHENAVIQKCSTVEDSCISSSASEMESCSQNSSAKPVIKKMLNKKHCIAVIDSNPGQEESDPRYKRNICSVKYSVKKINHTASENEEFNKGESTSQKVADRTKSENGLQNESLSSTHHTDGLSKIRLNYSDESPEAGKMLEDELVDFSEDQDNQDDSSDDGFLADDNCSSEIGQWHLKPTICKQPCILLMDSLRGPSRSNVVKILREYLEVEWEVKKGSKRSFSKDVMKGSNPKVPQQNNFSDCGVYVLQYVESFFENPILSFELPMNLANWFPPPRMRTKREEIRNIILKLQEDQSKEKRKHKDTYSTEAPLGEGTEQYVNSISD

[2] = Luminescence-based cell-based high throughput dose response assay to identify activators of the DAF-12 from the parasite S. stercoralis (ssDAF-12).; type: functional
[3] = target: T2, Sentrin-specific protease 8 (Homo sapiens, UniProt Q96LD8); type: functional;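 also: luminescence read-out of SENP8 inhibition, dose-response confirmation following an ultra-high-throughput screen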
T2 sequence (Q96LD8 whole entry): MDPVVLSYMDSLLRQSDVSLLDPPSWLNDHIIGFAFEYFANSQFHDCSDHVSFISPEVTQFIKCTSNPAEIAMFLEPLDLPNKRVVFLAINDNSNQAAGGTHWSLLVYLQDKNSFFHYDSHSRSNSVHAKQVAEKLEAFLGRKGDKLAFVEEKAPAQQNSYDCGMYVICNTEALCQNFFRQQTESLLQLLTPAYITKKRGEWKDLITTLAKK

[4] = target: T3, Oxysterols receptor LXR-beta (Homo sapiens, UniProt P55055); experiment: LXR agonists, Gal4 luciferase reporter, dose response, counter-screen for ssDAF-12 agonist project, cell-based, luminescence, HEK293, S. stercoralis campaign (AID 720737); type: functional; conditions: read-out: IC50 (the source's name)
T3 sequence (P55055 whole entry): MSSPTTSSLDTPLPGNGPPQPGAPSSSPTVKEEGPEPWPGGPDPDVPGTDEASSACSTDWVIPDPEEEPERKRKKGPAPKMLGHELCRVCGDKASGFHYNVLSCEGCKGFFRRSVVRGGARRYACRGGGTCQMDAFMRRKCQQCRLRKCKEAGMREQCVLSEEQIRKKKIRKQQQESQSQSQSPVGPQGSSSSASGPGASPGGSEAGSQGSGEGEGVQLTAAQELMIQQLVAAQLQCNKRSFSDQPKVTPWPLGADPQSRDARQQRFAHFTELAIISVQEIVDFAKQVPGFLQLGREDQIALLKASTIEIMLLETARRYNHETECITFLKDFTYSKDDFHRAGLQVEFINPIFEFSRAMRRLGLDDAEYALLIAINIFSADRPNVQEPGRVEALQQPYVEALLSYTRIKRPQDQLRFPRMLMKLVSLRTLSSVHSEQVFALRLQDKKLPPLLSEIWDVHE

[5] = target: T3, Oxysterols receptor LXR-beta; type: functional, cell-based
[6] = target: T4, Sentrin-specific protease 7 (Homo sapiens, UniProt Q9BQF6); type: functional;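 also: Luminescence-based dose-response confirmation of ultra-high-throughput screening hits, measuring inhibition of SENP7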
T4 sequence (Q9BQF6 whole entry): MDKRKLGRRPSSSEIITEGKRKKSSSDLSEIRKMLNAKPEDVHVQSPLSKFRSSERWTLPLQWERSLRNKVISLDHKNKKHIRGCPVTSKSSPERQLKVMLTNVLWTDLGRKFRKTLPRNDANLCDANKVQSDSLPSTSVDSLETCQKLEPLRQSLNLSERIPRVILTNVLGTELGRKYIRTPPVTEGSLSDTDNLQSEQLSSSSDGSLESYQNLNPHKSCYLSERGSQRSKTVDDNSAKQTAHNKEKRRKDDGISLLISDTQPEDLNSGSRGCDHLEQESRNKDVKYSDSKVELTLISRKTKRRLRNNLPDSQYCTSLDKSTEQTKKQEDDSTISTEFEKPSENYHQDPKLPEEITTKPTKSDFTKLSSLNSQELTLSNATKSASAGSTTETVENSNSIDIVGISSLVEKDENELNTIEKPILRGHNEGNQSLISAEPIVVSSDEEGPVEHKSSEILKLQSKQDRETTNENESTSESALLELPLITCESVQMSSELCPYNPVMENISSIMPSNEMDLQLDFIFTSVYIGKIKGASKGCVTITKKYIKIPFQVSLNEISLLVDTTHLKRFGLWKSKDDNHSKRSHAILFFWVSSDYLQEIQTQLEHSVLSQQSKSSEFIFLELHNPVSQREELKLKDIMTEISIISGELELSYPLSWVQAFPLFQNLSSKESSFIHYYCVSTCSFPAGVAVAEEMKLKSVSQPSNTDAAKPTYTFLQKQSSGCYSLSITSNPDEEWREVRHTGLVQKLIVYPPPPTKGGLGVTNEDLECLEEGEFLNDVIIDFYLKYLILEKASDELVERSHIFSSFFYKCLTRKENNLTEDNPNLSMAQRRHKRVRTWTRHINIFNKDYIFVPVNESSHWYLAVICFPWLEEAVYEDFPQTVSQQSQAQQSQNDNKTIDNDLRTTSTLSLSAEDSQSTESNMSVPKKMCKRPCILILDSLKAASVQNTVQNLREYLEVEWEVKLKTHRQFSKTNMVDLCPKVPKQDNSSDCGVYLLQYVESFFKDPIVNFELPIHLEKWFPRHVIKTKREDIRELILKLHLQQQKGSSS

Caspase-3 = target: T5, Caspase-3 (Homo sapiens, UniProt P42574); type: functional;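 also: Dose-response selectivity test against caspase-3 for candidate inhibitors of sentrin-specific proteases (SENPs)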
T5 sequence (P42574 whole entry): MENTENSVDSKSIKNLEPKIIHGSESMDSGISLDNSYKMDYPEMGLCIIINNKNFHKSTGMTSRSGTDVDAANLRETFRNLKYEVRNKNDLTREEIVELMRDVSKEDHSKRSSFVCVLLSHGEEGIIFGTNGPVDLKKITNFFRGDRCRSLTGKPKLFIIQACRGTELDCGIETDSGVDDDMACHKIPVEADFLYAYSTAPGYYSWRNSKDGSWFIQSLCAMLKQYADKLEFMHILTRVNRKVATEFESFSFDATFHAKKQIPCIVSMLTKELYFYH

[7] = target: Induced myeloid leukemia cell differentiation protein Mcl-1 (Homo sapiens, UniProt Q07820); type: functional
Chain of Induced myeloid leukemia cell differentiation protein Mcl-1 (Q07820 whole entry): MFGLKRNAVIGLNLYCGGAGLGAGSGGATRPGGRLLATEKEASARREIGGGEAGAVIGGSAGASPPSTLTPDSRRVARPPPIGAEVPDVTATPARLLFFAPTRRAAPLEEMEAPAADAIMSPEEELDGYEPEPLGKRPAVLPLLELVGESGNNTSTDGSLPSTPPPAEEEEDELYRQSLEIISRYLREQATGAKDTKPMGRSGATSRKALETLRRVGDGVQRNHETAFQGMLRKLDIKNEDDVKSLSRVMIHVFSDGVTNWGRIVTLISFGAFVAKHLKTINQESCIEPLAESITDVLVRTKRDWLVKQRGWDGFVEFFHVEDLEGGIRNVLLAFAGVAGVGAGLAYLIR

Aminopeptidase N = target: T6, Aminopeptidase N (Plasmodium falciparum FcB1/Columbia, UniProt O96935); experiment: P. falciparum M1AAP inhibitors, biochemical, fluorogenic H-Leu-NHMec substrate, 1536-well (AID 1445); design: species or system Plasmodium falciparum 3D7, 3D7
T6 sequence (O96935 whole entry): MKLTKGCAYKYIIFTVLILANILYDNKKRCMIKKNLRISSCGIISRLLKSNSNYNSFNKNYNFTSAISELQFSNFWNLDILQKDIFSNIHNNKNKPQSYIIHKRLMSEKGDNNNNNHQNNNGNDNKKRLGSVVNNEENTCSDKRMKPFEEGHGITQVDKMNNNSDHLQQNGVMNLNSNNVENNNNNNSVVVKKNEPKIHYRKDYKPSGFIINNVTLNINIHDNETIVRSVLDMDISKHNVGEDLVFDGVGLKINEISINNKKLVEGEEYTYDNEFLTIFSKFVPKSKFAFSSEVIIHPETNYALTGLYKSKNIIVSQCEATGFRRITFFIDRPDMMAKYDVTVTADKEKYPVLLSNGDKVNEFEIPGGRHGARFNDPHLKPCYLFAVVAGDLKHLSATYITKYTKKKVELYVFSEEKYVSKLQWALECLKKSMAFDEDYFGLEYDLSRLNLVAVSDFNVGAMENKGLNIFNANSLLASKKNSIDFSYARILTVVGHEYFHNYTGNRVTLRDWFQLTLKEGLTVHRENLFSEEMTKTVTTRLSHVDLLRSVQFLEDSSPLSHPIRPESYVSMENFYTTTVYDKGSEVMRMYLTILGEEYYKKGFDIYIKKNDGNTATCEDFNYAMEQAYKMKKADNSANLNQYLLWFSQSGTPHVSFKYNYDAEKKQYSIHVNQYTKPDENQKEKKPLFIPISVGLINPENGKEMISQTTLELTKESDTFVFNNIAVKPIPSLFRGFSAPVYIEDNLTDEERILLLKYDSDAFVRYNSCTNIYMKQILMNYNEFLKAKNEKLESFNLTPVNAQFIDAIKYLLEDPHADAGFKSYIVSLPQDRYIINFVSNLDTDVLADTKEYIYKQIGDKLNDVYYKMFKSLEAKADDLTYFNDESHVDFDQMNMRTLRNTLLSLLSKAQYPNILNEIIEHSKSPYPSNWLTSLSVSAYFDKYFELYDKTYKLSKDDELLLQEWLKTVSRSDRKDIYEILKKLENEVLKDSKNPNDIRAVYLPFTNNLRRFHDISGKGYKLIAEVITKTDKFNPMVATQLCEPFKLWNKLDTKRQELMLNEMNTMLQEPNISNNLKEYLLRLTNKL

[8] = target: T3, Oxysterols receptor LXR-beta; type: functional, cell-based; remark: listed apart in the source
Large T antigen = Large T antigen (Simian virus 40, UniProt P03070); type: functional, Betapolyomavirus macacae;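 also: Confirmatory-stage PubChem screen for compounds that inhibit SV40 T antigen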
Chain of Large T antigen (P03070 whole entry): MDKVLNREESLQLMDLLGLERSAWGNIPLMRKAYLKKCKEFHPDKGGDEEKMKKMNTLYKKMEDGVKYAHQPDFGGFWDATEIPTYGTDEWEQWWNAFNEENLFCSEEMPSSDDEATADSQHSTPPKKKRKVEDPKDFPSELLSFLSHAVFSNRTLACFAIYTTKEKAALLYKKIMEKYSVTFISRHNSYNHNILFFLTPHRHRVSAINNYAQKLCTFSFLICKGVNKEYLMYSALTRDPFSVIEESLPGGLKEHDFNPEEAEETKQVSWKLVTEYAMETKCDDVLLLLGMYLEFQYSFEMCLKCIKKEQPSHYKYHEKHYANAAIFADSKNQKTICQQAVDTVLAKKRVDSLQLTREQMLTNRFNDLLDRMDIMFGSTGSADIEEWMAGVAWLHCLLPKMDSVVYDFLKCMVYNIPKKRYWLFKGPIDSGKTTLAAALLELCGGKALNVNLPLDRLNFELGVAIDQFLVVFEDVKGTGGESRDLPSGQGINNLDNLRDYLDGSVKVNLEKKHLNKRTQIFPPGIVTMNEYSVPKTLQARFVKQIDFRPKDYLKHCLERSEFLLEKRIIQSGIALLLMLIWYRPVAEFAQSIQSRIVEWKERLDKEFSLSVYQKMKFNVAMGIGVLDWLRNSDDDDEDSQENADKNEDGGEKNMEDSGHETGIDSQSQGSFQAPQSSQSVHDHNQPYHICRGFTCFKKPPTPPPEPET

Paired box protein Pax-8 = Paired box protein Pax-8 (Homo sapiens, UniProt Q06710); experiment: inhibitors of PAX8-driven TPO luciferase reporter, dose response, RMG-I cells, cherry-pick (AID 687027); type: functional, cell-based;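 also: luciferase reporter driven by Pax8 target thyroperoxidase promoter measured by SteadyGlo luminescence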
Chain of Paired box protein Pax-8 (Q06710 whole entry): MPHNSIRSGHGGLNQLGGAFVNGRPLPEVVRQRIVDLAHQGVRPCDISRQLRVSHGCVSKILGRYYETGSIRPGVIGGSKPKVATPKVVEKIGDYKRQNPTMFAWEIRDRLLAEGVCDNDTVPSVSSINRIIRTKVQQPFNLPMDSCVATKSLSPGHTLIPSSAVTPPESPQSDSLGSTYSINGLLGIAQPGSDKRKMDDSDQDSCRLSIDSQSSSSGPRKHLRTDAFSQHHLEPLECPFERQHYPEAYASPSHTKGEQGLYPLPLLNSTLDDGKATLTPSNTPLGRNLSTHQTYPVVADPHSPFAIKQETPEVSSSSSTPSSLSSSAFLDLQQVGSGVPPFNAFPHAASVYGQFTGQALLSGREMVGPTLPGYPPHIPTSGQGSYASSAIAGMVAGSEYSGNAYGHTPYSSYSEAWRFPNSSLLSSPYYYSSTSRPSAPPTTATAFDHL

[9] = NIH:OVCAR-3 ovarian cancer cell cytotoxicity, dose response, PAX8 inhibitor project, plate reader, dry powder samples (AID 743044); type: functional, cell-based
[10] = A2780 ovarian cancer cell cytotoxicity, dose response, cytotoxicity control, plate reader, dry powder samples (AID 743046); type: functional, cell-based
[11] = cytotoxicity in OVCAR8 ovarian cancer cells, dose response, PAX8 project, cell-based, plate reader, dry powder samples (AID 743197); type: functional; conditions: OVCAR-8

**Q.** Which results are given for Cc1ccc(Nc2nc(-c3cccnc3)cs2)cc1C?
**A.** IC50 [1]: 7.01 µM (active); IC50 [2]: > 67.6 µM (inactive); EC50 (cells): > 67.6 µM (inactive); IC50 [3]: 7.16 µM (active); EC50 [4]: > 67.6 µM (inactive); EC50 [5]: > 67.6 µM (inactive); IC50 [6]: 5.02 µM (active); IC50 (Caspase-3): 34.4 µM (active)

**Q.** Which IC50 [7] does the source give for COc1cc(/C=C2/C(=N)N3N=C(c4ccc(C)cc4)SC3=NC2=O)ccc1O here?
**A.** Its IC50 is 3.26 µM (active).

**Q.** What about the IC50 (Aminopeptidase N) of the same compound?
**A.** Its IC50 is 66.1 µM (active).

**Q.** And the EC50 [8]?
**A.** Its EC50 is > 67.5 µM (inactive).

**Q.** And the IC50 (Large T antigen)?
**A.** Its IC50 is 7.62 µM (active).

**Q.** Which results are given for Cc1ccccc1S(=O)(=O)N1CC[C@@H]2[C@H](CO)Nc3ccc(-c4cccc(F)c4)cc3[C@@H]21?
**A.** AC50 (Paired box protein Pax-8): 13.6 µM (active); AC50 [9]: 53.8 µM (active); AC50 [10]: 0.711 µM (active); AC50 [11]: 46.7 µM (active)

**Q.** For Cc1ccc(-c2noc(-c3ccccc3Br)n2)cc1, which EC50 (cells) is on record?
**A.** Its EC50 is > 67.5 µM (inactive).

**Q.** And the EC50 [5]?
**A.** Its EC50 is > 67.5 µM (inactive).

Source: ChEMBL document CHEMBL1201862, “PubChem BioAssay data set” (2004)
